Experimental findings from patent publication EP4781984A1 (Beyang Therapeutics Co., Ltd., priority 2023, dated 2025) are described below.

The nature of series [1]: Thermodynamic solubility test. It is filed as physicochemical. Conditions: buffer solution, aqueous buffer, thermodynamic from solid; thermodynamic solubility, room temperature, 8 hours shaking; buffers pH 2.0, 6.5, 7.4 used, pH of the tabulated value not given. In short, it runs like this: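 Samples sonicated 10 min, shaken 8 h at room temperature, re-sonicated and centrifuged at 13000 rpm for 15 min. Supernatant recentrifuged and analysed by LC-MS, with concentrations quantified against a 3–5 point calibration curve.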

The target in the next series is T1, VEGFR1 (Homo sapiens, UniProt P17948).
T1 construct: purchased Invitrogen PR6731B
T1 sequence (P17948 27-1338): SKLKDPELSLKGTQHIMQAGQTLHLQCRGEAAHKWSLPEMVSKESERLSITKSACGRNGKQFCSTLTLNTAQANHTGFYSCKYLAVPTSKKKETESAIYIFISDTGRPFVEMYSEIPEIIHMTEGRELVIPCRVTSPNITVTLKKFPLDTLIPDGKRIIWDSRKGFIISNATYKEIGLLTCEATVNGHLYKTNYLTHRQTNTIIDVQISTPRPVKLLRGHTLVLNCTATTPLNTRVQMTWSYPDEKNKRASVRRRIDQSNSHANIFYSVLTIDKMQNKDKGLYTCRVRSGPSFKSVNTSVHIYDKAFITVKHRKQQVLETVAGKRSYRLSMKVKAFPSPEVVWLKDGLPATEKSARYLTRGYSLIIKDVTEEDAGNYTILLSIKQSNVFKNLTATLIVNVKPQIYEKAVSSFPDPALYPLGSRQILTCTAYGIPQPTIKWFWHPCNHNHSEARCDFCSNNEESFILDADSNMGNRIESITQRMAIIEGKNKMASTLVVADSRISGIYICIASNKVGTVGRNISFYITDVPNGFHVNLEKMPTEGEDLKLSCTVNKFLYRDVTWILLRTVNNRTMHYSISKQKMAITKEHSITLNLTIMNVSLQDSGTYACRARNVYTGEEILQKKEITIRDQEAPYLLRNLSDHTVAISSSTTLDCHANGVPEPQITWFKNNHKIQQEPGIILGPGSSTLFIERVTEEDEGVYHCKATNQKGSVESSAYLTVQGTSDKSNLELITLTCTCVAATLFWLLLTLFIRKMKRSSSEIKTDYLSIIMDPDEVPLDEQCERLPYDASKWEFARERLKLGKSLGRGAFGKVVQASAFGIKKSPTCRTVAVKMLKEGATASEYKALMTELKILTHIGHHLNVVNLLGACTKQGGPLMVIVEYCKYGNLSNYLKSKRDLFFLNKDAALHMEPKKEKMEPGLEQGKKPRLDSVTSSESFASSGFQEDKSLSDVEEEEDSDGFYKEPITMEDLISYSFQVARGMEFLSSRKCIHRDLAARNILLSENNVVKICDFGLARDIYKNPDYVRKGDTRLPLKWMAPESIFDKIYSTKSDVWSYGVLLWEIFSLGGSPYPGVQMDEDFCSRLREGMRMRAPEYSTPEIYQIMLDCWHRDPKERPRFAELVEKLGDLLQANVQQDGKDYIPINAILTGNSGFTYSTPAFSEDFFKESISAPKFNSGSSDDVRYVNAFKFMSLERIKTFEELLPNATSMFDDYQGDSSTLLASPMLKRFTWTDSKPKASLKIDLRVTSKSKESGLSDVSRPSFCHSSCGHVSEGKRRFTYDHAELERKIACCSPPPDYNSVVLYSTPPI
Put plainly: Kinase inhibitory activity, Mobility Shift Assay (VEGFR1). It is filed as biochemical. How it is done: (§1) Assay for Inhibitory Activity of Compounds Against VEGFR and EGFR Kinases
(§2) This assay directly monitors the inhibitory activity of compounds on kinase phosphorylation by measuring non-phosphorylated and phosphorylated substrates in the kinase reaction using Mobility Shift Assays/IMAP™ analysis. Table 2. Reagents and Instruments
(§3) Kinase and DTT were added to 1X kinase buffer to form a 2.5X kinase solution; 10 µL of the 2.5X kinase solution was transferred to a 384-well reaction plate, and 1X kinase buffer was added to the negative control wells. The plate was incubated at room temperature for 10 minutes; FAM-labeled peptide, MgCl2, ATP, and other reagents were added to 1X kinase buffer to form a 2.5X substrate solution; 10 µL of the above 2.5X substrate solution was transferred to the 384-well reaction plate; the plate was incubated at 28°C for varying times, and then 25 µL of stop solution was added to the 384-well reaction plate to terminate the reaction. Conversion rate data were read on a CaliperEZ Reader II. […] IC50 values were fitted using XLFit excel add-in version 5.4.0.8. Y = Bottom + (Top−Bottom)/(1 + […]) [formula]
(§4) X is the log value of compound concentration, Y is the inhibition rate (% inhibition).

For the next series, the system named is melanin. Description: Compound binding to melanin. Conditions: cuttlefish (Sepia officinalis), melanin suspension (1 mg/mL), percentage of free drug (not bound to melanin), 2 µM compound, melanin 1 mg/mL in PBS pH 7.4, 37°C. It is filed as in vitro ADME. In short, it runs like this: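 Compound at 2 µM final incubated with 1 mg/mL Sepia melanin in PBS pH 7.4, 37°C, 2 hours with shaking; blank in PBS with 0.1% BSA. Supernatant concentration by LC-MS/MS. Fb = 100 − (Ctest/Ccontrol) × 100%.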

Series [2] is described as follows: Ophthalmic formulations based on polyethylene glycol series vehicles: composition and state (Example 7). The series is classed as physicochemical. The text has this:
(§5) In the following ophthalmic formulation preparation examples, "solution" refers to a clear, transparent liquid without visible insoluble matter. "Near-clear solution" refers to a liquid that appears close to a solution upon visual observation but may contain a small amount of insoluble particles or have a slightly opaque color. "Suspension" refers to a liquid that is visibly turbid or opaque. "Gel" refers to a completely or partially gel-like solid.
Example 7: Ophthalmic Formulations Based on Polyethylene Glycol Series Vehicles
According to the formulation composition shown in the tables below, weigh the compound powder, add it to polyethylene glycol 400, and sonicate until dissolved or nearly dissolved (heat to 50°C if necessary). Add this to a Tris-HCl buffer solution containing hydroxypropyl-β-cyclodextrin, poloxamer 188, and gellan gum (or other viscosity modifier), vortex to mix, and prepare into an eye drop formulation.

A short description of series [3]: Plasma and ocular tissue distribution after single ocular administration of formulations in Dutch Belted rabbits (Example 9). Conditions: for concentration at 0.5 h: male, rabbit, plasma, other: ocular administration (eye drops). It is filed as in vivo. The procedure: Male Dutch Belted rabbits used in this experiment were purchased from Pizhou Dongfang Breeding Co., Ltd., with animal weights ranging from 1.5 to 2.5 kg. All procedures performed on experimental animals in this experiment complied with the relevant SOP requirements of Suzhou Sunstone New Drug Development Co., Ltd. and were approved by the Institutional Animal Care and Use Committee (IACUC) of Suzhou Sunstone New Drug Development Co., Ltd. Formulation Preparation: Weigh approximately 1 mg of the test substance into a glass vial. After necessary calculation/conversion, sequentially add the eye drop formulation vehicle (Tris-HCl buffer (0.05 mol/L): Tween 80: 0.5% CMC-Na = 49: 1:50). Vortex and sonicate after adding Tris-HCl buffer and Tween 80, then add 0.5% CMC-Na, vortex, and sonicate or cut if necessary, to prepare a 1 mg/mL dosing formulation. All prepared dosing formulations were freshly prepared on the day of administration, sampled, and the actual concentration of the dosing formulation was determined.
On the day of the experiment, animals were administered 1 mg/mL (0.05 mg/eye, 50 µL/eye). There were 2 animals per group. Animals were euthanized at 0.5, 4, or 8 hours after administration, respectively, by an appropriate method, and blood samples and ocular tissues (i.e., cornea, retina, choroid, and sclera) were collected. The collected 1 mL of whole blood was placed in an EDTA-K2 anticoagulant tube, inverted several times to mix thoroughly, and centrifuged (1500-1600 g) for 10 minutes within 30 minutes to separate plasma. The obtained plasma samples were stored at -80°C for bioanalysis. After collection, ocular tissues were washed with pre-cooled saline, dried, and stored at -80°C or under equivalent conditions for subsequent tissue homogenization and sample analysis. For ocular tissues requiring homogenization, the entire or a portion of the tissue was selected, accurately weighed, and homogenized at a 1:10 ratio with 20% methanol-water. The tissue homogenate was stored at -80°C for sample analysis. The concentrations of each analyte in rabbit ocular tissues and plasma obtained in this experiment were determined using an LC-MS/MS analytical method. The matrices were Dutch rabbit plasma (EDTA-K2 anticoagulated) and rabbit ocular tissue (1:10, 20% methanol-water). Left and right eyes were tested separately. BLOQ (Below the Limit of Quantification) is the lowest analyte concentration that can be quantified with acceptable precision and accuracy. Compounds were diluted 1:10 with homogenate before analysis, and if the concentration after dilution was less than 1 ng/mL, it was marked as BLOQ.
Example 9: Detection of Plasma and Ocular Tissue Distribution after Single Ocular Administration of Formulations in Dutch Belted Rabbits
The experimental procedure refers to Example 6. Animals were administered eye drops at 5 mg/mL (0.25 mg/eye, 50 µL/eye) or 1 mg/mL (0.05 mg/eye, 50 µL/eye), respectively. Table 22 Experimental Results
Except for compound I-32, the other components of Suspension A and Solution B are respectively: • Suspension A: Tris(hydroxymethyl)aminomethane-Hydrochloric Acid Buffer (0.05M): Tween 80: 0.5% (w/v) Sodium Carboxymethylcellulose aqueous solution = 49:1:50 (v/v/v); • Solution B: Polyethylene Glycol 400: 50mM Tris(hydroxymethyl)aminomethane-Hydrochloric Acid Buffer (containing 10% Hydroxypropyl-β-cyclodextrin, 1% Poloxamer 188, 0.3% Gellan Gum Gelrite, w/v) = 5:95 (v/v).

Another series concerns the target T2, VEGFR2 (Homo sapiens, UniProt P35968).
T2 construct: purchased Carna 08-191
Description: Kinase inhibitory activity, Mobility Shift Assay (VEGFR2). The series is classed as biochemical. The procedure:
as §1, §2, §3, §4

Series [4] in a line: Ophthalmic formulations based on in situ salt formation technology: composition and state (Example 8). It is filed as physicochemical. Conditions: Table 19, pH ~7.
Excerpt: as §5
Example 8: Ophthalmic Formulation Based on In Situ Salt Formation Technology
Therefore, by preparing ophthalmic formulation compositions based on in situ salt formation technology, the solubility of the compounds can be further improved.
According to the formulation composition shown in the table below, weigh the compound powder, add 50% of the total volume (v/v) of a 30% (w/v) aqueous solution of hydroxypropyl-β-cyclodextrin (containing surfactant), and disperse by sonication; next, add an appropriate volume of pH regulator and sonicate until clear; then, add an equal volume of buffer containing solubilizer, viscosity modifier, etc., for dilution, and immediately vortex to mix; finally, add an appropriate volume of alkali regulator to adjust the solution pH to approximately 7, to prepare an eye drop formulation.
Using the in situ salt formation method, the compound is first dispersed in a solution containing Hydroxypropyl-β-cyclodextrin, then different acids are added to adjust the pH to 3-5, allowing the compound to fully or nearly fully dissolve, followed by adding the remaining components and adjusting the pH to approximately 7. […] Based on the visual dissolution effect after acid addition, methanesulfonic acid, acetic acid, and lactic acid were preliminarily selected as pH regulators. The preliminarily selected acids were used in subsequent tests with higher compound concentrations. Table 18 Formulation Composition and State

Where [5] appears, read: Table 12: 1mg/ml, Polyethylene glycol 400 5, Hydroxypropyl-β-cyclodextrin 10, Tris-HCl buffer (pH 8.3) 10mM, Hydroxypropyl methylcellulose 1, Poloxamer 188 1.
[6] abbreviates: Solution B, 1 mg/mL (0.05 mg/eye, 50 µL/eye), formulation pH 8.3.
Where [7] appears, read: Suspension A, 1 mg/mL (0.05 mg/eye, 50 µL/eye), formulation pH 8.4.
[8] abbreviates: Suspension A, 5 mg/mL (0.25 mg/eye, 50 µL/eye), formulation pH 8.4.
Setting [9] is: Table 16: 2 mg/mL, Polyethylene Glycol 400 5, Poloxamer 188 1, Hydroxypropyl-β-cyclodextrin 6, Gellan Gum Gelrite 0.15, Tris-HCl Buffer (pH 6.8) 25mM.

SMILES strings stand for the structures. In brackets after ≈: the same amount, converted by molar mass.

T2 sequence (P35968 20-1356): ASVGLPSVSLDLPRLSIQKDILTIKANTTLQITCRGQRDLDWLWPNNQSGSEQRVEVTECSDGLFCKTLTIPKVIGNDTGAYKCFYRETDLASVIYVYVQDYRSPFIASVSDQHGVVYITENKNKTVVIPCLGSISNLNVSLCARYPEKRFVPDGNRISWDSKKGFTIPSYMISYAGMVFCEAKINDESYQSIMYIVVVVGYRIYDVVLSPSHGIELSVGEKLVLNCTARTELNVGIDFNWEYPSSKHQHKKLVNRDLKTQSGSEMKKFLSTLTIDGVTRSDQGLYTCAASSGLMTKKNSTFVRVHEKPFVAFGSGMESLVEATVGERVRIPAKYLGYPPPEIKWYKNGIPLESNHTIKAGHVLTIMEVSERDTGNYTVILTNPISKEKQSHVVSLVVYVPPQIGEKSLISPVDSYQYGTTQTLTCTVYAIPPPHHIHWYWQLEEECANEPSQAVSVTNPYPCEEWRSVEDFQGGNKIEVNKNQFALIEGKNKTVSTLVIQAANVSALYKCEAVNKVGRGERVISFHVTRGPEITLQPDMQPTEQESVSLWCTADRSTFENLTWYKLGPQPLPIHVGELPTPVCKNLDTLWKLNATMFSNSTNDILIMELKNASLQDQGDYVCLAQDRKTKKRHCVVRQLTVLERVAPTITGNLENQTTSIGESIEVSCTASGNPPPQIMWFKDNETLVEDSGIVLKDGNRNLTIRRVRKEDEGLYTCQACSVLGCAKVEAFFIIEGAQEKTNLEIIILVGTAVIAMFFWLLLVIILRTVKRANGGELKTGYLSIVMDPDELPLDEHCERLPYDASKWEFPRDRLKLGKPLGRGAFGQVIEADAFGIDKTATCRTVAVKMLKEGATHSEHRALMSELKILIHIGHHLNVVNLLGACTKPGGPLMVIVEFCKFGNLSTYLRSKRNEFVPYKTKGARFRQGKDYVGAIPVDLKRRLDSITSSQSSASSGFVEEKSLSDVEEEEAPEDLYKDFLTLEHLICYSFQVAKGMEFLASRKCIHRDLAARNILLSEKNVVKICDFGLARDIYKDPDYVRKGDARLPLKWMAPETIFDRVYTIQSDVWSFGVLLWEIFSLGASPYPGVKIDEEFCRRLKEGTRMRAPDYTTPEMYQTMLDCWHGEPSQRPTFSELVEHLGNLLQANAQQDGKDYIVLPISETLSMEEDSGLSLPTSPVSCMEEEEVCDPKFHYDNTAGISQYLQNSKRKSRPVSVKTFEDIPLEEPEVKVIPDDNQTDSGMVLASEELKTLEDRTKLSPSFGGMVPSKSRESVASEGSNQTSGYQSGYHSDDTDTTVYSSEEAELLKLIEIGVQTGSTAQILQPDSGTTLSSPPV

A word on the solubility: it is how much of the substance goes into solution per volume. A low value points to little dissolved substance. One may read the IC50 as the midpoint of a concentration-inhibition curve. By fraction unbound is commonly meant the share of the substance not bound to proteins or other matrix. The low end stands for extensive binding, the high end for weak binding. `CNC(=O)c1c(F)cccc1Sc1ccc2c(/C=C/c3ccc(OCCN4CCCC4)cn3)n[nH]c2c1` [Compound I-36, 2-fluoro-N-methyl-6-({3-[(E)-2-{5-[2-(pyrrolidin-1-yl)ethoxy]pyridin-2-yl}ethenyl]-1H-indazol-6-yl}sulfanyl)benzamide] showed a solubility at 8 h in series [1] of 16.2 µg/mL (≈ 31.3 µM). Besides, the IC50 on VEGFR1 is > 100 nM. Also, in the series on melanin, the fraction unbound at 2 h, 2 µM is > 0.05.
Take `CNC(=O)c1ccccc1Sc1ccc2c(/C=C/c3ccc(OCCN4CCCC4)cn3)n[nH]c2c1` [Compound I-6]: the concentration in solution in series [1] (solubility at 8 h) came to 226 µg/mL (≈ 452 µM). In addition, the IC50 on VEGFR1 is ≤ 1 nM. Also, the fraction unbound at 2 h, 2 µM in the series with melanin was 0.01 to 0.05.
As to `CNC(=O)c1ccccc1Sc1ccc2c(/C=C/c3cnn(CCCN4CCCC4)c3)n[nH]c2c1` [Compound I-32, N-methyl-2-((3-((E)-2-(1-(3-(pyrrolidin-1-yl)propyl)-1H-pyrazol-4-yl)ethenyl)-1H-indazol-6-yl)thio)benzamide], in series [2] (setting [5]), the “State Description: pH” value was ~8 and the “State Description: state” value is “solution”. Besides, in series [3] (setting [6]), the “Choroid AUC” value is 381 ng·h/g, the “Conjunctiva AUC” value is 2142 ng·h/g, the “Cornea AUC” value is 590 ng·h/g and the “Plasma Concentration 0.5h” value is on record as “BLOQ”. In addition, in series [3] (setting [6]), the “Retina AUC” value stood at 784 ng·h/g and the “Sclera AUC” value worked out at 998 ng·h/g. Besides, in series [3] (setting [7]), the “Choroid AUC” value is 526 ng·h/g, the “Conjunctiva AUC” value amounted to 6157 ng·h/g, the “Cornea AUC” value is 3380 ng·h/g and the “Iris AUC” value was 162 ng·h/g. In addition, in series [3] (setting [7]), the “Retina AUC” value is 330 ng·h/g, the “Sclera AUC” value was found to be 2175 ng·h/g and the concentration at 0.5 h is 2.4 ng/mL. Moreover, in series [3] (setting [8]), the “Choroid AUC” value was 1594.5 ng·h/g, the “Conjunctiva AUC” value came out at 17380.5 ng·h/g, the “Cornea AUC” value was 5175 ng·h/g and the “Iris AUC” value was 549.5 ng·h/g. Besides, in series [3] (setting [8]), the “Retina AUC” value stood at 613 ng·h/g, the “Sclera AUC” value was found to be 2439.5 ng·h/g and the concentration at 0.5 h turned out to be 5.6 ng/mL. This molecule registered a solubility at 8 h in series [1] of 327 µg/mL (≈ 672 µM). The molecule also had an unbound share (fraction unbound) at 2 h, 2 µM with melanin of 0.01 to 0.05.
Regarding `CNC(=O)c1ccccc1Sc1ccc2c(/C=C/c3ccc(OC[C@@H]4CCN(C)C4)cn3)n[nH]c2c1` [Compound I-39], the IC50 at VEGFR2 and at VEGFR1 was ≤ 1 nM throughout.
In the case of `O=C(NC1CC1)c1cccc(F)c1Sc1ccc2c(/C=C/c3ccc(CN4CCCC4)cn3)n[nH]c2c1` [Compound I-67, N-cyclopropyl-3-fluoro-2-({3-[(E)-2-{5-[(pyrrolidin-1-yl)methyl]pyridin-2-yl}ethenyl]-1H-indazol-6-yl}thio)benzamide], the “State Description: pH” value in series [2] (setting [9]) was ~7. Moreover, in series [2] (setting [9]), the “State Description: state” value is “solution”. The “State Description” value in series [4] (Compound 5 mg/ml, 1M Benzenesulfonic Acid 1%, no Polyoxyethylene castor oil EL, no alkali added) is recorded as “solution”; in series [4] (Compound 5 mg/ml, 1M Methanesulfonic Acid 1%, Polyoxyethylene castor oil EL 1%, 0.5M Tris 0.5%), “solution”; in series [4] (Compound 5 mg/ml, 1M Methanesulfonic Acid 1%, no Polyoxyethylene castor oil EL, 0.5M Tris 0.5%) it was “near-clear solution”; in series [4] (Compound 10 mg/ml, 1M Acetic Acid 2%, no Polyoxyethylene castor oil EL, 0.5M Tris 1%), “solution”; in series [4] (Compound 10 mg/ml, 1M Lactic Acid 2%, no Polyoxyethylene castor oil EL, 0.5M Tris 1%), “solution”; in series [4] (Compound 20 mg/ml, 1M Methanesulfonic Acid 4%, Polyoxyethylene castor oil EL 1%, 0.5M Tris 1.5%), “near-clear solution”. The solubility at 8 h in series [1] was found to be 118 µg/mL (≈ 230 µM). Further, the fraction unbound at 2 h, 2 µM with melanin is > 0.05.
On to `CN(C)Cc1ccc(/C=C/c2n[nH]c3cc(Sc4ccccc4C(=O)NC4CC4)ccc23)nc1` [Compound I-40, N-cyclopropyl-2-((3-((E)-2-(5-((dimethylamino)methyl)pyridin-2-yl)ethenyl)-1H-indazol-6-yl)thio)benzamide], for which, at VEGFR1, the IC50 was ≤ 1 nM. In the series with melanin, this molecule yielded a fraction unbound at 2 h, 2 µM of 0.01 to 0.05.
